# According to US20250382588A1, “CHIMERIC AAV AND USES THEREOF” (priority 2023, published 2025):
# Entries after “also recorded” stand apart in the source; their conditions may differ.
# T1: rM3Ds (Rattus norvegicus, UniProt P08483, A177S/A238G/A489L/DEL261-437/DEL441-478/E258S/I253V/I483M/INS256[…]/K178L/K182A/K255R/K484R/K486H/L173F/L482A/M480V/R171S/R176Q/R179M/S481M/T174R/T181R/T257A/Y148C)
# T1 sequence (P08483 with tags, fused parts or gaps Y148C/R171S/L173F/T174R/R176Q/A177S/K178L/R179M/T181R/K182A/A238G/I253V/K255R/INS256[…]/T257A/E258S/DEL261-437/DEL441-478/M480V/S481M/L482A/I483M/K484R/K486H/A489L): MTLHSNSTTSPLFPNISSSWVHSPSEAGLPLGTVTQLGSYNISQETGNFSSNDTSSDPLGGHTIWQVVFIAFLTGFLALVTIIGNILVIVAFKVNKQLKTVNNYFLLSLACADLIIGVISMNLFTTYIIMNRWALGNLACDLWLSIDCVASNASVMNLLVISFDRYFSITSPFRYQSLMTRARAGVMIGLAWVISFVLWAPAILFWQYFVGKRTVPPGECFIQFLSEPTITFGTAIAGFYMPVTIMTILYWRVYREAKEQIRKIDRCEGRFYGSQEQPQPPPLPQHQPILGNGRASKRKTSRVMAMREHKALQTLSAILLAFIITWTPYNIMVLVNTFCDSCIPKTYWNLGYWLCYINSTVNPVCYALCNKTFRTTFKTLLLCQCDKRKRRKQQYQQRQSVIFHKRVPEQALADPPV
# Assays:
# [1] = target: T1, rM3Ds; assay: Electrophysiological recording in caudate/putamen of MPP+ lesioned macaques after CNO or DCZ; type: in vivo
# Procedure: Intriguingly, many of the symptoms were greatly reversed after systemic deschloroclozapine (DCZ) administration. DCZ is a potent brain-penetrable agonist for rM3Ds with reduced off-targeting binding compared to CNO, and was administered to activate the DREADD system in the macaque brain.
# Electrophysiological recording was performed through a recording chamber while the monkey was anesthetized. Neural responses were recorded by a 16-channel linear probe (Plexon Inc, Uprobe) driven by a mechanical microdrive (Alpha Omega, FlexMT). Signals were passed through a head stage (Plexon Inc, HST/16V-G20 LN) and then split and filtered between 300 Hz and 5 kHz to identify spiking activity with an amplifier system (Plexon Inc, OmniPlex). Detected spikes were then sorted by commercially available software (Plexon Inc, Offline Sorter) for further analysis. To quantify the effect of CNO/DCZ injection, neural activity was recorded for 60 minutes following CNO/DCZ injection. The response time-course for each channel was obtained by counting the spikes within every 10-minute window and then normalizing to the maximal.
# To determine the effect of CNO/DCZ injection on the direction of signal change, we performed Pearson correlation between neural responses and time using the ‘corr’ function in Matlab, which generates the correlation coefficient ‘r’ and significant level ‘p’. A neuron was considered to have “Increased” activity when r>0 and p<[…]; and considered to have “Decreased” activity when r<0 and p<0.05. Otherwise, neurons were considered to be “Unchanged” in their neural activities. The responses of all increased neurons were then averaged after being normalized by the maximal response (Crowe et al., 2014; Dai and Wang, 2018; Hirokawa et al., 2019) following CNO/DCZ injection, and then plotted as a function of time to generate the normalized population response.
# [2] = CSF concentration of DCZ by LC-MS; type: in vivo, macaques; conditions: 24 hours after drug infusion, 0.3 mg/kg i.m.
# Text: One month of washout was allowed before administration of DCZ.
# [3] = Motor-related behaviors in naïve macaques after DCZ; type: in vivo; conditions: DCZ 0.3 mg/kg
# Procedure: The locomotion tests for monkeys were conducted in a custom-made observation cage (100 cm×100 cm×100 cm). The top and front of the cage were made of toughened glass in order to gain a clear view for behavioral recording. Monkeys were habituated to the observation cage by placing them inside for 30 minutes on three separate days.
# [4] = in vivo
# [5] = tested on: parkinsonian macaque model (MPP+); assay: Parkinsonian symptoms in MPP+ macaques (PD score, locomotion, EMG tremor, motor skill, dyskinesia score)
# Procedure: Parkinsonian conditions in macaque monkeys were established by unilaterally injecting 1-Methyl-4-phenylpyridinium (MPP+) into the SNc (FIG. 14). […] Drug injections were performed in five sites covering the whole SNc. A total volume of 10 ul MPP+ was injected into SNc at a speed of 50 nL/min. Monkeys were continuously monitored by veterinarians after lesion.
# Two experienced observers blindly evaluated parkinsonian symptoms of the monkeys three days per week throughout the observation periods. Parkinsonian symptoms were quantified according to the well-established Kurlan scale (Part I. Parkinsonian features), a widely used scale to quantify PD symptoms in old world monkeys. A score of zero indicates a normal monkey, whereas a maximum score of 29 indicates an animal with severe PD symptoms. For separate behavioral categories, scoring of the upper limb and the lower limb were added together. Additionally, action or intention tremors and resting tremors were added together.
# Two experienced observers blindly evaluated dyskinesia symptoms of the monkeys three days per week throughout the observation periods. Dyskinesia score criteria were: 0: Absent. 1: Mild, fleeting, present <30% of the observation period. 2: Moderate, not interfering with normal activity, present >30% of the observation period. 3: Marked, at times interfering with normal activity; present <70% of the observation period.4: Severe, continuous, replacing normal activity, present >70% of the observation.
# For parkinsonian monkeys, DCZ (Deschloroclozapine, 0.3 mg/kg, MCE) was administered via intramuscular injection. After DCZ was successfully infused, monkeys were immediately transferred to the observation cage for video recording. […] For long-term DCZ treatment, parkinsonian monkeys were given DCZ at a dose of 0.3 mg/kg every other day via intramuscular injection. […] One month of washout was allowed before administration of DCZ for a 2 months treatment.
# A grasp-to-eat/hand-to-mouth movement test was conducted as an indication of motor skills in monkeys. Monkeys were first trained to sit in a primate chair with the healthy hand restricted. Monkeys were then trained to grasp food (a piece of apple, ˜1 cm3) using the MPP+-affected hand from the experimenter. The task contained three blocks, with 20-minute intervals between different blocks. Each block included ten continuous trials. Trials were defined as successful when monkeys were able to bring food to their mouth within a minute.
# During video recording, a top (x/y) and a side (x/z) camera were used to record the observation cage. The VigiePrimate system (Viewpoint) was used to analyze the subject's activity and extract movement data from the recorded videos. The tracking data were synchronously sampled at 25 Hz for both top view and side view, and then combined to generate one dataset representing the 3D space. The tracking data were normalized to 0-100 cm for all x-, y-, and z-axes, of which x represents right to left, y represents front to back, and z represents bottom to top.
# Customized surface EMG electrodes were used for EMG recordings.
# [6] = tested on: MSNs in nucleus accumbens; assay: Retrograde labeling of accumbal MSNs after delivery into ventral pallidum or lateral hypothalamus; type: in vivo, mice
# [7] = tested on: striatal D1 MSNs (striatonigral projection neurons); assay: Retrograde labeling of striatonigral projection neurons after AAV injection into the SNr; type: in vivo, mice; conditions: for Mean: Table 2, AAVs with capsid and promoter, labeled cells per striatal hemisphere after nigral delivery; for retrograde labeling/infectivity of striatal projection neurons (D1 MSNs), in words: injection into the SNr; for labeled striatonigral projection neurons (FIG. 2C): mean±SEM, n=3 mice, viruses injected into the SNr; for times more EYFP positive/labeled MSNs compared to rAAV2-retro: nigral delivery, hSyn-EYFP
# Procedure: To improve efficiency, multiple rounds of mutations of AAV capsids were performed on a series of different serotypes. Mutations were introduced at three sites in the AAV8 capsid protein to make AAV8R, including N385D, insertion of […] (SEQ ID NO: 31) at position 588, and TS711-712IN. Two additional mutations of V183E and N411S were incorporated into the AAV8R12 capsid protein (FIG. 1A). The labeling pattern of the AAV8R12 capsid and G88 promoter combination was determined.
# First, the polypeptide fragment RGNLADODYTKTARQAATAD (SEQ ID NO.: 31) was inserted at the N587-R588 position; two other point mutations of the AAV2 Cap protein were made to develop rAAV2-retro. Similar mutations were then placed at equivalent positions for four other AAV serotypes (FIGS. 1A-IC and 25, TABLE 1), AAV1/5/6/8 (FIG. 1A). […] When administered into the SNr, 4.86±0.22 times EYFP positive MSNs in mice infected by AAV8R-hSyn-EYFP were observed as compared to those infected by rAAV2-retro-hSyn-EYFP (FIG. 2A-2C).
# Baseline infectivity of rAAV2-retro was approximately 0.2±0.03×10^4 cells per striatal hemisphere (using a hSyn promoter) (TABLE 2). […] Compared to the current standard retrograde AAV, rAAV2-retro, AAV8R12 labeled 7.72±0.78-times more MSNs after nigral delivery (FIG. 2B-2C, TABLE 1). […] The AAV8R12 was generated using the AAV8R plasmid as a template.
# Mice were anesthetized with sodium pentobarbital (Nembutal; 80 mg/kg, i.p.), and then placed into a stereotaxic device (KOPF). Eye cream was applied on both corneas to avoid dehydration. The skull above the targeted areas was thinned with a dental drill and carefully removed. Injections were conducted with a 10 μL syringe connected to a 33-Gauge needle (Neuros; Hamilton), using a microsyringe pump (Legato 130, KD Scientific). A total volume of 200 nL virus was injected into the SNr at a speed of 20 nL/min. The coordinates for the SNr were 3.4 mm posterior, 1.3 mm lateral, 4.8 mm ventral to the bregma.
# HEK293T cells (ATCC) were co-transfected by calcium phosphate with an AAV vector plasmid, an AAV Rep-Cap plasmid (rAAV2-retro, AAV1R, AAV5R, AAV6R, AAV8R, and AAV8R1-14), and the pAdDeltaF6 helper plasmid (Addgene, 112867) harboring the adenoviral genes required for the AAV life cycle. HEK293T cells grown in 15 cm cell culture dishes were co-transfected with the mixture of three plasmids (1:1:1) at 80% confluency. 48-72 hours post-transfection, cells were collected and resuspended in a buffer containing 150 mM NaCl and 100 mM Tris-HCl (pH 8.0). Cells were lysed by repeated freeze-thaw cycles in liquid nitrogen and a 37° C. water bath. AAV particles were purified and concentrated using Millipore Amicon 100K columns (Merck Millipore, UFC910008). Encapsidated viral DNA was quantitated by qPCR (Thermo Fisher) with primers recognizing the viral WPRE and/or ITR sequences following denaturation of the AAV particles using Proteinase K. Titers were calculated as genome copies per milliliter.
# Images were acquired using a confocal microscope (Carl Zeiss, LSM880) and an Axiolmager.Z1 microscope with apotome (Carl Zeiss). Brain structures were identified microscopically and in digital photos using a mouse brain atlas. To analyze the number of EYFP+ cells in the striatum, slices from rostral to caudal striatum were used. Every sixth section was analyzed, and numbers of EYFP+ cells were multiplied by six to acquire the approximate total number and mean number of cells per animal. Images were processed using ImageJ (NIH, USA), and final quantifications were independently performed manually by two blinded experimenters.
# [8] = caudate/putamen, CNO 36 cells, DCZ 31 cells
molecule,measurement,setting,value
"CN1CCN(C2=Nc3ccccc3Nc3ccccc32)CC1 [DCZ, deschloroclozapine]","neuronal activity in MPP+ lesioned macaques, in words",[1]; anesthetized animals,induced an increase in neuronal activity
same,cells activated (FIG. 15G),[1]; [8],41.9%
same,cells inactivated (FIG. 15G),[1]; [8],9.7%
same,cells unchanged (FIG. 15G),[1]; [8],48.4%
same,DCZ level in cerebrospinal fluid,[2],no detectable levels
same,motor-related behaviors in naïve monkeys,[3],did not alter motor-related behaviors; also recorded: doesn't alter motor-related behaviors
same,blood levels of common liver- and kidney-related factors,[4],remained stable
same,motor skills (hand to mouth movement),[5]; DCZ treatment,significant recovery of motor skills; also recorded: partially restored
same,spontaneous movement/motor deficits in an observation cage,[5]; DCZ treatment,increase in spontaneous movement; also recorded: successfully rescue motor deficits
same,tremor (EMG),[5]; DCZ treatment,great reduced or even eliminated; also recorded: removed
same,duration of effect,[5]; FIG. 18C,over 24 hr
same,alleviation of parkinsonian symptoms over long-term treatment,[5]; continuous DCZ,consistent during an 8-month continuous treatment
same,speed of reversal of symptoms,[5]; initial phase of drug administration,faster reversal of symptoms than levodopa; also recorded: faster than L-Dopa
same,dyskinesia-like behaviors (dyskinesia score),[5]; long-term treatment,dyskinesia-free; also recorded: did not elicit dyskinesia-like behaviors; also recorded: dyskinesia free
same,alleviating symptoms after drug administration,[5]; single dose after steady-state efficacy,at least 24 hours
"AAV8R12: AAV8R capsid mutant V183E + N411S, SEQ ID NO: 13 (protein) MAADGYLPDWLEDNLSEGIREWWALKPGAPKPKANQQKQDDGRGLVLPGYKYLGPFNGLDKGEPVNAADAAALEHDKAYDQQLQAGDNPYLRYNHADAEFQERLQEDTSFGGNLGRAVFQAKKRVLEPLGLVEEGAKTAPGKKRPVEPSPQRSPDSSTGIGKKGQQPARKRLNFGQTGDSESEPDPQPLGEPPAAPSGVGPNTMAAGGGAPMADNNEGADGVGSSSGNWHCDSTWLGDRVITTSTRTWALPTYNNHLYKQISNGTSGGATNDNTYFGYSTPWGYFDFNRFHCHFSPRDWQRLINNNWGFRPKRLSFKLFNIQVKEVTQNEGTKTIANNLTSTIQVFTDSEYQLPYVLGSAHQGCLPPFPADVFMIPQYGYLTLNDGSQAVGRSSFYCLEYFPSQMLRTGNSFQFTYTFEDVPFHSSYAHSQSLDRLMNPLIDQYLYYLSRTQTTGGTANTQTLGFSQGGPNTMANQAKNWLPGPCYRQQRVSTTTGQNNNSNFAWTAGTKYHLNGRNSLANPGIAMATHKDDEERFFPSNGILIFGKQNAARDNADYSDVMLTSEEEIKTTNPVATEEYGIVADNLQRGNLADQDYTKTARQAATADVNSQGALPGMVWQNRDVYLQGPIWAKIPHTDGNFHPSPLMGGFGLKHPPPQILIKNTPVPADPPTTFNQSKLNSFITQYSTGQVSVEIEWELQKENSKRWNPEIQYTSNYYKSINVDFAVNTEGVYSEPRPIGTRYLTRN",labeling of MSNs in nucleus accumbens,[6],robust labeling
same,Labeling Efficiency in Striatonigral Pathway,"[7]; AAV8R capsid mutants, numbers of labeled neurons per animal",+++ (10 k-25 k)
same,Mean,[7],16026
same,"retrograde labeling/infectivity of striatal projection neurons (D1 MSNs), in words",[7],mostly improved efficiency
same,labeled striatonigral projection neurons (FIG. 2C),[7],16026±1654
same,times more EYFP positive/labeled MSNs compared to rAAV2-retro,[7],7.72±0.78 times
"AAV8R: AAV8 capsid with N385D, insertion of SEQ ID NO: 31 at position 588 and TS to IN mutation; SEQ ID NO: 1 (protein) MAADGYLPDWLEDNLSEGIREWWALKPGAPKPKANQQKQDDGRGLVLPGYKYLGPFNGLDKGEPVNAADAAALEHDKAYDQQLQAGDNPYLRYNHADAEFQERLQEDTSFGGNLGRAVFQAKKRVLEPLGLVEEGAKTAPGKKRPVEPSPQRSPDSSTGIGKKGQQPARKRLNFGQTGDSESVPDPQPLGEPPAAPSGVGPNTMAAGGGAPMADNNEGADGVGSSSGNWHCDSTWLGDRVITTSTRTWALPTYNNHLYKQISNGTSGGATNDNTYFGYSTPWGYFDFNRFHCHFSPRDWQRLINNNWGFRPKRLSFKLFNIQVKEVTQNEGTKTIANNLTSTIQVFTDSEYQLPYVLGSAHQGCLPPFPADVFMIPQYGYLTLNDGSQAVGRSSFYCLEYFPSQMLRTGNNFQFTYTFEDVPFHSSYAHSQSLDRLMNPLIDQYLYYLSRTQTTGGTANTQTLGFSQGGPNTMANQAKNWLPGPCYRQQRVSTTTGQNNNSNFAWTAGTKYHLNGRNSLANPGIAMATHKDDEERFFPSNGILIFGKQNAARDNADYSDVMLTSEEEIKTTNPVATEEYGIVADNLQRGNLADQDYTKTARQAATADVNSQGALPGMVWQNRDVYLQGPIWAKIPHTDGNFHPSPLMGGFGLKHPPPQILIKNTPVPADPPTTFNQSKLNSFITQYSTGQVSVEIEWELQKENSKRWNPEIQYTSNYYKSINVDFAVNTEGVYSEPRPIGTRYLTRNL",labeling of MSNs in nucleus accumbens,[6],robust labeling
same,Mean,[7],10092
same,"retrograde labeling/infectivity of striatal projection neurons (D1 MSNs), in words",[7],acquired improved retrograde infectivity
same,labeled striatonigral projection neurons (FIG. 2C),[7],10092±463.9
same,times more EYFP positive/labeled MSNs compared to rAAV2-retro,[7],4.86±0.22 times
